{"source": "paper PMC3629977", "about": "(Journal of nuclear medicine : official publication, Society …, 2010)", "key": {"CXCR4": {"test_system": "CXCR4", "conditions": "cited from earlier work"}, "[1]": {"test_system": "stem cells from the bone marrow", "conditions": "compared with AMD3100/plerixafor; cited from earlier work"}, "CHO-CXCR4 tumors [2]": {"test_system": "CHO-CXCR4 tumors", "conditions": "4-^18F-T140 alone, mice bearing CHO and CHO-CXCR4 tumors; Fig. 5A: 2 h after injection, 50 μCi"}, "CHO-CXCR4 tumors [3]": {"test_system": "CHO-CXCR4 tumors", "conditions": "in vivo"}, "red blood cells": {"test_system": "red blood cells", "conditions": "mouse, in vivo"}, "[4]": {"conditions": "female, athymic nude, mouse, iv, 3 h"}}, "note": "Bridge positions count the residues as written; N and C are the ends. Square brackets hold non-standard residues; d marks the D form. Peptide text beside a SMILES is read from it. * marks the point of attachment. 2Nal = N[C@@H](Cc1ccc2ccccc2c1)C(=O)O; Benzoyl(4-F) = O=C(c1ccc(F)cc1)*; Cit = NC(=O)NCCC[C@H](N)C(=O)O"}
{"smiles": "N=C(N)NCCC[C@H](NC(=O)[C@@H]1CSSC[C@H](NC(=O)[C@H](Cc2ccc3ccccc3c2)NC(=O)[C@H](CCCNC(=N)N)NC(=O)[C@H](CCCNC(=N)N)NC(=O)c2ccc(F)cc2)C(=O)N[C@@H](Cc2ccc(O)cc2)C(=O)N[C@@H](CCCNC(N)=O)C(=O)N[C@@H](CCCCN)C(=O)N[C@H](CCCCN)C(=O)N2CCC[C@H]2C(=O)N[C@@H](Cc2ccc(O)cc2)C(=O)N[C@@H](CCCNC(=N)N)C(=O)N[C@@H](CCCNC(N)=O)C(=O)N1)C(N)=O", "note": "[4-F-T140, 4-F-benzoyl-TN14003] ({Benzoyl(4-F)}-RR[2Nal]CY[Cit]K[dK]PYR[Cit]CR-NH2; disulfide 4-13)", "values": [{"measurement": "CXCR4 antagonist selectivity", "setting": "CXCR4", "result": "highly selective CXCR4 antagonist"}, {"measurement": "in vivo mobilization of stem cells from the bone marrow", "setting": "[1]", "result": "increased in vivo mobilization of stem cells from the bone marrow"}]}
{"smiles": "N=C(N)NCCC[C@H](NC(=O)[C@@H]1CSSC[C@H](NC(=O)[C@H](Cc2ccc3ccccc3c2)NC(=O)[C@H](CCCNC(=N)N)NC(=O)[C@H](CCCNC(=N)N)NC(=O)c2ccc(F)cc2)C(=O)N[C@@H](Cc2ccc(O)cc2)C(=O)N[C@@H](CCCNC(N)=O)C(=O)N[C@@H](CCCCN)C(=O)N[C@H](CCCCN)C(=O)N2CCC[C@H]2C(=O)N[C@@H](Cc2ccc(O)cc2)C(=O)N[C@@H](CCCNC(=N)N)C(=O)N[C@@H](CCCNC(N)=O)C(=O)N1)C(N)=O", "note": "[4-^18F-T140, 4-^18F-benzoyl-TN14003] ({Benzoyl(4-F)}-RR[2Nal]CY[Cit]K[dK]PYR[Cit]CR-NH2; disulfide 4-13)", "values": [{"measurement": "PET visualization of tumors", "setting": "CHO-CXCR4 tumors [2]", "result": "clearly showed both tumors"}, {"measurement": "tumor-to-blood ratio (CHO-CXCR4)", "setting": "CHO-CXCR4 tumors [3]; [4]", "result": "0.19 ± 0.04"}, {"measurement": "tumor-to-muscle ratio (CHO-CXCR4)", "setting": "CHO-CXCR4 tumors [3]; [4]", "result": "2.94 ± 0.16"}, {"measurement": "difference of uptake between CHO-CXCR4 and CXCR4-negative CHO tumors", "setting": "CHO-CXCR4 tumors [3]", "result": "not statistically significant"}, {"measurement": "binding to red blood cells", "setting": "red blood cells", "result": "bind specifically to red blood cells in vitro and in vivo"}]}
